# Measurements taken from PubChem BioAssay (NCI).
#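 GI50 = concentration required for 50% inhibition of growth. TGI is the concentration that stops growth completely.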
# Tests used:
# Assay in all cases: NCI tumour cell line growth inhibition, 384-well format
# 786-0 renal = system: 786-0 renal
# A498 renal = system: A498 renal
# A549 NSCLC = system: A549 NSCLC
# ACHN renal = system: ACHN renal
# BT-549 breast = system: BT-549 breast
# CAKI-1 renal = system: CAKI-1 renal
# CCRF-CEM leukemia = system: CCRF-CEM leukemia
# COLO 205 colon = system: COLO 205 colon
# DU-145 prostate = system: DU-145 prostate
# EKVX NSCLC = system: EKVX NSCLC
# HCC-2998 colon = system: HCC-2998 colon
# HCT-116 colon = system: HCT-116 colon
# HCT-15 colon = system: HCT-15 colon
# HL-60(TB) leukemia = system: HL-60(TB) leukemia
# HOP-62 NSCLC = system: HOP-62 NSCLC
# HOP-92 NSCLC = system: HOP-92 NSCLC
# HS 578T breast = system: HS 578T breast
# HT29 colon = system: HT29 colon
# IGROV1 ovarian = system: IGROV1 ovarian
# KM12 colon = system: KM12 colon
# LOX IMVI melanoma = system: LOX IMVI melanoma
# M14 melanoma = system: M14 melanoma
# MALME-3M melanoma = system: MALME-3M melanoma
# MCF7 breast = system: MCF7 breast
# MDA-MB-231 breast = system: MDA-MB-231 breast
# MDA-MB-435 melanoma = system: MDA-MB-435 melanoma
# MDA-MB-468 breast = system: MDA-MB-468 breast
# MOLT-4 leukemia = system: MOLT-4 leukemia
# NCI-H226 lung = system: NCI-H226 lung
structure (smiles),measurement,setting,value
CNC(=O)c1c(C)oc2cc(Oc3ncnc4cc(OC)c(OC)cc34)ccc12,GI50,786-0 renal,> 100 µM
same,TGI,786-0 renal,> 100 µM
same,GI50,A498 renal,> 100 µM
same,TGI,A498 renal,> 100 µM
same,GI50,A549 NSCLC,> 100 µM
same,TGI,A549 NSCLC,> 100 µM
same,GI50,ACHN renal,> 100 µM
same,TGI,ACHN renal,> 100 µM
same,GI50,BT-549 breast,11.5 µM
same,TGI,BT-549 breast,> 100 µM
same,GI50,CAKI-1 renal,> 100 µM
same,TGI,CAKI-1 renal,> 100 µM
same,GI50,CCRF-CEM leukemia,> 100 µM
same,TGI,CCRF-CEM leukemia,> 100 µM
same,GI50,COLO 205 colon,> 100 µM
same,TGI,COLO 205 colon,> 100 µM
same,GI50,DU-145 prostate,> 100 µM
same,TGI,DU-145 prostate,> 100 µM
same,GI50,EKVX NSCLC,> 100 µM
same,TGI,EKVX NSCLC,> 100 µM
same,GI50,HCC-2998 colon,> 100 µM
same,TGI,HCC-2998 colon,> 100 µM
same,GI50,HCT-116 colon,> 100 µM
same,TGI,HCT-116 colon,> 100 µM
same,GI50,HCT-15 colon,> 100 µM
same,TGI,HCT-15 colon,> 100 µM
same,GI50,HL-60(TB) leukemia,> 100 µM
same,TGI,HL-60(TB) leukemia,> 100 µM
same,GI50,HOP-62 NSCLC,> 100 µM
same,TGI,HOP-62 NSCLC,> 100 µM
same,GI50,HOP-92 NSCLC,> 87.5 µM
same,TGI,HOP-92 NSCLC,> 100 µM
same,GI50,HS 578T breast,25.5 µM
same,TGI,HS 578T breast,> 100 µM
same,GI50,HT29 colon,> 100 µM
same,TGI,HT29 colon,> 100 µM
same,GI50,IGROV1 ovarian,> 100 µM
same,TGI,IGROV1 ovarian,> 100 µM
same,GI50,KM12 colon,> 100 µM
same,TGI,KM12 colon,> 100 µM
same,GI50,LOX IMVI melanoma,> 100 µM
same,TGI,LOX IMVI melanoma,> 100 µM
same,GI50,M14 melanoma,> 100 µM
same,TGI,M14 melanoma,> 100 µM
same,GI50,MALME-3M melanoma,> 100 µM
same,TGI,MALME-3M melanoma,> 100 µM
same,GI50,MCF7 breast,> 100 µM
same,TGI,MCF7 breast,> 100 µM
same,GI50,MDA-MB-231 breast,> 100 µM
same,TGI,MDA-MB-231 breast,> 100 µM
same,GI50,MDA-MB-435 melanoma,> 100 µM
same,TGI,MDA-MB-435 melanoma,> 100 µM
same,GI50,MDA-MB-468 breast,> 100 µM
same,TGI,MDA-MB-468 breast,> 100 µM
same,GI50,MOLT-4 leukemia,> 87.1 µM
same,TGI,MOLT-4 leukemia,> 100 µM
same,TGI,NCI-H226 lung,> 100 µM
